Source: ChEMBL document CHEMBL4840380, “The Psychedelic Renaissance: Addressing Potential Adverse Effects in a Therapeutic Setting” (ACS Med Chem Lett, 2021)

Legend:
[1] = biological target: 5-hydroxytryptamine receptor 2A (Homo sapiens) (UniProt P28223); test: Agonist activity at 5HT2A receptor (unknown origin) expressed in HEK293 cells assessed as maximal effect by FLIPR calcium flux assay relative to control; assay type: functional, cell-based; conditions: filed as agonist
Mus musculus = test: Antipsychotic activity in sc dosed C57BL/6 mouse assessed as DOI-induced head twitching observed for 20 mins; assay type: functional, organism-based; conditions: dose 1-100 mg/kg

Sequence of 5-hydroxytryptamine receptor 2A (Homo sapiens) (P28223 whole entry): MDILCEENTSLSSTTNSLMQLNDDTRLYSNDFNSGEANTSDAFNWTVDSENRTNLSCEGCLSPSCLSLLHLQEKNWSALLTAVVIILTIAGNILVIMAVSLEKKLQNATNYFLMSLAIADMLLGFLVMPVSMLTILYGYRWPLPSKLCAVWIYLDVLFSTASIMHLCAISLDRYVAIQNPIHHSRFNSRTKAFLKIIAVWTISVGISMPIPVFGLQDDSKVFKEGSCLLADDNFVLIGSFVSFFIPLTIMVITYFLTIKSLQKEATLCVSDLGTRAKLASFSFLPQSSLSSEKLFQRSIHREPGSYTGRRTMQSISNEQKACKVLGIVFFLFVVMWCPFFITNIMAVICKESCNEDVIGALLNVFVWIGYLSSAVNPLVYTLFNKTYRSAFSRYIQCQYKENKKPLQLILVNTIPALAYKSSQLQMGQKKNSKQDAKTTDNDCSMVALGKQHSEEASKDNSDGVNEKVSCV

Structure (SMILES) | Emax [1] [%] | Activity (Mus musculus)
CCN(C)CCc1c[nH]c2ccc(F)cc12 | 87.6 | Dose-Dependent Effect
CN(C)CCc1c[nH]c2ccccc12 | 93.4 | –
CCCN(CC)CCc1c[nH]c2ccc(F)cc12 | 104 | Dose-Dependent Effect
